Experimental data: paper PMC4564001 (Bioorganic & medicinal chemistry letters, 2015)

Tests used:
neutrophil influx = test: Ozone rat model of pulmonary inflammation; format: in vivo, Sprague-Dawley rats
[1] = format: in vitro ADME; conditions: data not shown
[2] = format: in vitro ADME, human; conditions: 1 μM, 37°C, LC-MS/MS
Aqueous solubility = format: physicochemical; conditions: qualitative statement
[3] = format: in vivo; conditions: DPS vehicle

Row | Compound | Effectiveness at reducing neutrophil influx relative to 6 (neutrophil influx; single IV dose 1 mg/kg, ozone model, side-by-side with 6) | Stability in rat plasma (6 vs 7) [1] | Human Plasma stability (% remaining) 1 hr [2] | Human Plasma stability (% remaining) 4 hr [2] | Human Plasma stability (% remaining) 24 hr [2] | Aqueous solubility (Aqueous solubility) | Reduction of neutrophil influx (BALF) (neutrophil influx; single IV dose 1 mg/kg at t = 0, 1 ppm ozone 4 hours, BALF at 24 hours) | Rat PK AUC @ 1 mg/kg IV [3]
1 | O=C(Nc1ccc(F)cc1)c1cnc(N(Cc2ccccc2)Cc2ccc(B(O)O)cn2)nc1 [Compound 7, (2-{(Benzyl)[(5-boronic acid-2-pyridyl)methyl]amino}-5-pyrimidinyl)(4-fluorophenylamino)formaldehyde] | twice as effective | no significant difference | 90 % remaining | 71 % remaining | 62 % remaining |  |  | 
2 | CN(Cc1ccc(B(O)O)cn1)c1ccc(C(=O)Nc2ccc(F)cc2)cn1 [Compound 22] |  |  |  |  |  | improved aqueous solubility |  | 
3 | CN(Cc1ccc(B(O)O)cn1)c1ncc(C(=O)Nc2ccc(F)cc2)cn1 [Compound 23] |  |  |  |  |  | improved aqueous solubility |  | 
4 | O=C(Nc1ccc(F)cc1)c1ccc(SCc2cc(OC(F)(F)F)ccc2B(O)O)nc1 [Compound 6, 6-(2-boronic acid-5-trifluoromethoxy-benzylsulfanyl)-N-(4-fluoro-phenyl)-nicotinamide] |  | no significant difference | 62 % remaining | 34 % remaining | 2 % remaining |  | modest reduction in neutrophil influx | 5.40 µM·h
